Experiment [1] relates to MCF10A wild type (WT) and PTEN knockout (PT−/−) cells. Briefly: crystal violet cell growth, 96 hours after treatment. The format is cell-based.
Protocol: MCF10A wild type (WT) and PTEN knockout (PT−/−) cells were seeded into 48-well plate with density of 4000 cells/well. The next day, the growth medium was changed to a medium containing Tacrolimus. Medium containing 0.1% DMSO was used as negative control. Ninety-six (96) hours after treatment, the cells were stained with crystal violet for cell growth. The cell growth of negative control group is set as 100%.
The next day, the growth medium was changed to a medium containing CsA (FIG. 9A) or an analog as depicted in each panel in FIG. 9B-D. Medium containing 0.1% DMSO was used as negative control. Ninety-six (96) hours after treatment, the cells were stained with crystal violet for cell growth. The cell growth of negative control group is set as 100%.
Medium containing 0.1% DMSO was used as negative control. Ninety-six (96) hours after treatment, the cells were stained with crystal violet and measured for cell growth. Cell growth of the negative control group is set as 100%.
MCF10A wild type (WT) and PTEN knockout (PT−/−) cells were seeded into 48-well plate with density of 4000 cells/well. The next day, the growth medium was changed to medium containing a compound, CsA or its analogs of Formula III-VIII. Medium containing 0.1% DMSO, was used as a negative control. Ninety six (96) hours after treatment, the cells were stained with crystal violet for cell growth. The cell growth of negative control group was set as 100%.
MCF10A wild type (WT) and PTEN knockout (PT−/−) cells were seeded into 48-well plates at a density of 4000 cells/well. […] Medium containing 0.1% DMSO was used as negative control. Ninety-six (96) hours after treatment, the cells were stained with crystal violet and measured for cell growth. Cell growth of the negative control group was set as 100% (FIG. 10A).
A further experiment has as its system MDA-MB-468 cells (PT−/−). Put plainly: crystal violet cell growth, seven days after treatment. The format is cell-based. Particulars: MDA-MB-468, seven days; FIG. 10B. The method, then: The next day, the growth medium was changed to medium containing CsA and NIM-811. Medium containing 0.1% DMSO was used as negative control. The medium was replenished once. Seven days after treatment, the cells were stained with crystal violet and measured for cell growth. Cell growth of the negative control group is set as 100%.
MDA-MB-468 cells (PT−/−) were seeded into 48-well plates at a density of 5000 cells/well. The next day, the growth medium was changed to medium containing CsA and NIM-811. Medium containing 0.1% DMSO was used as negative control. The medium was replenished once. Seven days after treatment, the cells were stained with crystal violet and measured for cell growth. Cell growth of the negative control group is set as 100% (FIG. 10B).

In the case of `C=CC[C@@H]1/C=C(\C)C[C@H](C)C[C@H](OC)[C@H]2O[C@@](O)(C(=O)C(=O)N3CCCC[C@H]3C(=O)O[C@H](/C(C)=C/[C@@H]3CC[C@@H](O)[C@H](OC)C3)[C@H](C)[C@@H](O)CC1=O)[C@H](C)C[C@@H]2OC` [tacrolimus], in experiment [1] (MCF10A WT vs PT−/−, FIG. 8), the “preferential killing of PTEN null cells” value is “does not preferentially kill PTEN null cells”. In addition, the “inhibition of cancer cells” value in experiment [1] (physiologic dosing, FIG. 8) is given as “does not inhibit cancer cells at physiologic dosing”.
Regarding `C/C=C/C[C@@H](C)[C@@H](O)[C@H]1C(=O)N[C@@H](CC)C(=O)N(C)CC(=O)N(C)[C@@H]([C@@H](C)CC)C(=O)N[C@@H](C(C)C)C(=O)N(C)[C@@H](CC(C)C)C(=O)N[C@@H](C)C(=O)N[C@H](C)C(=O)N(C)[C@@H](CC(C)C)C(=O)N(C)[C@@H](CC(C)C)C(=O)N(C)[C@@H](C(C)C)C(=O)N1C` [NIM-811], the “cell growth inhibition activity compared to CsA” value with MDA-MB-468 cells (PT−/−) is given as “better cell growth inhibition activity compared to CsA”. Further, the “differential inhibition of PT−/− MCF10A cells vs. isogenic wild type cells, compared to CsA” value in experiment [1] (96 hours, FIG. 10A) is “increased activity compared to CsA”.
